# In patent US8440710B2, “HSL inhibitors useful in the treatment of diabetes” (Hoffmann-La Roche Inc., priority 2009, dated 2013):
# Target: T1, human HSL (Homo sapiens, UniProt Q05469)
# T1 construct: generate a full length human HSL ORF with a 3′-His6 tag; made in house; host or cells: High 5 insect cells (baculovirus, pFast-BAC)
# T1 sequence (Q05469 1-1076): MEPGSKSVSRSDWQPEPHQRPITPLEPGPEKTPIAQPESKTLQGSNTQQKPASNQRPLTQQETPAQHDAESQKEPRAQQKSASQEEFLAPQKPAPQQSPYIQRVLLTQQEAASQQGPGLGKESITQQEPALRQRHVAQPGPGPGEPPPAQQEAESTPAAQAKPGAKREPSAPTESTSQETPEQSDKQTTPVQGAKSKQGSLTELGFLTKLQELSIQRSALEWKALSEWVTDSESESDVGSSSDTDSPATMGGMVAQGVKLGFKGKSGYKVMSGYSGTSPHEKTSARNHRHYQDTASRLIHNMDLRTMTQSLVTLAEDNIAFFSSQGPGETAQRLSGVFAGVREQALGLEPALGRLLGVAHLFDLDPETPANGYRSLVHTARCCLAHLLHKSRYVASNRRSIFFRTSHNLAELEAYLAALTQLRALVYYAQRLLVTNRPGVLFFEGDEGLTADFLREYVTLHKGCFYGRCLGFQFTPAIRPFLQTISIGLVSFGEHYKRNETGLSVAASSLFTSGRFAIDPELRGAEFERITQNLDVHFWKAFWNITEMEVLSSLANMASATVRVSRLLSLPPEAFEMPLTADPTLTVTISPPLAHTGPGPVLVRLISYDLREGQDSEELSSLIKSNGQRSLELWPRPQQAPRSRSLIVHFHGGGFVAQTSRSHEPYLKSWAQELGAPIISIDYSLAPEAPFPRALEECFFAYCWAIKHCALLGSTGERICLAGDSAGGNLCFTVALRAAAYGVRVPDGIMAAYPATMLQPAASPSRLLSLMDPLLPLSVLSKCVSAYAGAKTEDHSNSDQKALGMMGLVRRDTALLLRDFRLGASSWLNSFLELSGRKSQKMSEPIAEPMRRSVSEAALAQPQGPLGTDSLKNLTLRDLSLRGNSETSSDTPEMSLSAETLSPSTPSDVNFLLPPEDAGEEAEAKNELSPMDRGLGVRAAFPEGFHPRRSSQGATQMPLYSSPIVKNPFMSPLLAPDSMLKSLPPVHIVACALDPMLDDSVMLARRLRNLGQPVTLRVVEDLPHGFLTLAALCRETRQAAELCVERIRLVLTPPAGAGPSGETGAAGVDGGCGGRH
# Assay: Human Hormone-Sensitive Lipase (HSL) enzyme inhibition assay (colorimetric, DMPT substrate)
# Format: biochemical
# Conditions: human full length HSL-His6, 2,3-dimercapto-1-propanol tributyrate substrate, 37° C. 20 minutes, absorbance at 405 nm; read-out: HSL hum IC50
# Procedure, shortened: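 Full-length human HSL with C-terminal His6, expressed in baculovirus-infected High 5 cells and Ni-NTA purified, was added (15 ug/ml stock) to 1.5 mM DMPT in 100 mM MOPS pH 7.2, 0.2 mg/ml fatty acid-free BSA containing compound. After 20 min at 37 °C, DTNB with SDS/Triton X-100 was added; A405 read after 15 min at RT.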
row,Structure (SMILES),IC50 [nM]
1,"C[C@H](Oc1ccc(N2CC[C@]3(CC[C@@](O)(COCC(F)(F)F)CC3)C2=O)cc1)C(F)(F)F [Example 283, (5α,8α)-8-Hydroxy-8-(2,2,2-trifluoro-ethoxymethyl)-2-[4-((S)-2,2,2-trifluoro-1-methyl-ethoxy)-phenyl]-2-aza-spiro[4.5]decan-1-one]",10
2,"C[C@@H](Oc1ccc(N2CC[C@]3(CC[C@](O)(COCC(F)(F)F)CC3)C2=O)cc1)C(F)(F)F [Example 284, (5α,8β)-8-Hydroxy-8-(2,2,2-trifluoro-ethoxymethyl)-2-[4-((R)-2,2,2-trifluoro-1-methyl-ethoxy)-phenyl]-2-aza-spiro[4.5]decan-1-one]",360
3,"C[C@@H](Oc1ccc(N2CC[C@]3(CC[C@@](O)(COCC(F)(F)F)CC3)C2=O)cc1)C(F)(F)F [Example 285, (5α,8α)-8-Hydroxy-8-(2,2,2-trifluoro-ethoxymethyl)-2-[4-((R)-2,2,2-trifluoro-1-methyl-ethoxy)-phenyl]-2-aza-spiro[4.5]decan-1-one]",10
4,"O=C1N(c2ccc(CC(F)(F)F)cc2)CC[C@]12CC[C@](O)(COCC(F)(F)F)CC2 [Example 286, (5α,8β)-8-Hydroxy-8-(2,2,2-trifluoro-ethoxymethyl)-2-[4-(2,2,2-trifluoro-ethyl)-phenyl]-2-aza-spiro[4.5]decan-1-one]",190
5,"O=C1N(c2ccc(CC(F)(F)F)cc2)CC[C@]12CC[C@@](O)(COCC(F)(F)F)CC2 [Example 287, (5α,8α)-8-Hydroxy-8-(2,2,2-trifluoro-ethoxymethyl)-2-[4-(2,2,2-trifluoro-ethyl)-phenyl]-2-aza-spiro[4.5]decan-1-one]",10
6,"O=C1N(c2ccc(C3CC3)cc2)CC[C@]12CC[C@](O)(COCC(F)(F)F)CC2 [Example 288, (5α,8β)-2-(4-Cyclopropyl-phenyl)-8-hydroxy-8-(2,2,2-trifluoro-ethoxymethyl)-2-aza-spiro[4.5]decan-1-one]",800
7,"O=C1N(c2ccc(C3CC3)cc2)CC[C@]12CC[C@@](O)(COCC(F)(F)F)CC2 [Example 289, (5α,8α)-2-(4-Cyclopropyl-phenyl)-8-hydroxy-8-(2,2,2-trifluoro-ethoxymethyl)-2-aza-spiro[4.5]decan-1-one]",20
8,"O=C1N(c2ccc(OCC(F)(F)F)cc2)CC[C@]12CC[C@@](O)(COCCC1CC1)CC2 [Example 290, (5α,8α)-8-(2-Cyclopropyl-ethoxymethyl)-8-hydroxy-2-[4-(2,2,2-trifluoro-ethoxy)-phenyl]-2-aza-spiro[4.5]decan-1-one]",20
9,"CC(C)CCOC[C@]1(O)CC[C@]2(CCN(c3ccc(OCC(F)(F)F)cc3)C2=O)CC1 [Example 291, (5α,8α)-8-Hydroxy-8-(3-methyl-butoxymethyl)-2-[4-(2,2,2-trifluoro-ethoxy)-phenyl]-2-aza-spiro[4.5]decan-1-one]",20
10,"CC(OC[C@]1(O)CC[C@]2(CCN(c3ccc(OCC(F)(F)F)cc3)C2=O)CC1)C(F)(F)F (stereo partly drawn) [Example 292, (5α,8α)-8-Hydroxy-2-[4-(2,2,2-trifluoro-ethoxy)-phenyl]-8-(2,2,2-trifluoro-1-methyl-ethoxymethyl)-2-aza-spiro[4.5]decan-1-one]",10
11,"CSC[C@]1(O)CC[C@]2(CCN(c3ccc(OCC(F)(F)F)cc3)C2=O)CC1 [Example 293, (5α,8α)-8-Hydroxy-8-methylsulfanylmethyl-2-[4-(2,2,2-trifluoro-ethoxy)-phenyl]-2-aza-spiro[4.5]decan-1-one]",20
12,"CCCSC[C@]1(O)CC[C@]2(CCN(c3ccc(OCC(F)(F)F)cc3)C2=O)CC1 [Example 294, (5α,8α)-8-Hydroxy-8-propylsulfanylmethyl-2-[4-(2,2,2-trifluoro-ethoxy)-phenyl]-2-aza-spiro[4.5]decan-1-one]",20
13,"O=C1N(c2ccc(OCC(F)(F)F)nc2)CC[C@]12CC[C@@](O)(COCC(F)F)CC2 [Example 295, (5α,8α)-8-(2,2-Difluoro-ethoxymethyl)-8-hydroxy-2-[6-(2,2,2-trifluoro-ethoxy)-pyridin-3-yl]-2-aza-spiro[4.5]decan-1-one]",40

# Further lines, results first:
row,IC50 [nM],Structure (SMILES)
1,550,"C[C@H](Oc1ccc(N2CC[C@]3(CC[C@](O)(COCC(F)F)CC3)C2=O)cn1)C(F)(F)F [Example 296, (5α,8β)-8-(2,2-Difluoro-ethoxymethyl)-8-hydroxy-2-[6-((S)-2,2,2-trifluoro-1-methyl-ethoxy)-pyridin-3-yl]-2-aza-spiro[4.5]decan-1-one]"
2,20,"C[C@H](Oc1ccc(N2CC[C@]3(CC[C@@](O)(COCC(F)F)CC3)C2=O)cn1)C(F)(F)F [Example 297, (5α,8α)-8-(2,2-Difluoro-ethoxymethyl)-8-hydroxy-2-[6-((S)-2,2,2-trifluoro-1-methyl-ethoxy)-pyridin-3-yl]-2-aza-spiro[4.5]decan-1-one]"
3,590,"C[C@H](Oc1ccc(N2CC[C@]3(CC[C@](O)(COCC(F)F)CC3)C2=O)cc1)C(F)(F)F [Example 298, (5α,8β)-8-(2,2-Difluoro-ethoxymethyl)-8-hydroxy-2-[4-((S)-2,2,2-trifluoro-1-methyl-ethoxy)-phenyl]-2-aza-spiro[4.5]decan-1-one]"
4,10,"C[C@H](Oc1ccc(N2CC[C@]3(CC[C@@](O)(COCC(F)F)CC3)C2=O)cc1)C(F)(F)F [Example 299, (5α,8α)-8-(2,2-Difluoro-ethoxymethyl)-8-hydroxy-2-[4-((S)-2,2,2-trifluoro-1-methyl-ethoxy)-phenyl]-2-aza-spiro[4.5]decan-1-one]"
5,300,"C[C@@H](Oc1ccc(N2CC[C@]3(CC[C@](O)(COCC(F)F)CC3)C2=O)cc1)C(F)(F)F [Example 300, (5α,8β)-8-(2,2-Difluoro-ethoxymethyl)-8-hydroxy-2-[4-((R)-2,2,2-trifluoro-1-methyl-ethoxy)-phenyl]-2-aza-spiro[4.5]decan-1-one]"
6,10,"C[C@@H](Oc1ccc(N2CC[C@]3(CC[C@@](O)(COCC(F)F)CC3)C2=O)cc1)C(F)(F)F [Example 301, (5α,8α)-8-(2,2-Difluoro-ethoxymethyl)-8-hydroxy-2-[4-((R)-2,2,2-trifluoro-1-methyl-ethoxy)-phenyl]-2-aza-spiro[4.5]decan-1-one]"
7,510,"O=C1N(c2ccc(CC(F)(F)F)cc2)CC[C@]12CC[C@](O)(COCC(F)F)CC2 [Example 302, (5α,8β)-8-(2,2-Difluoro-ethoxymethyl)-8-hydroxy-2-[4-(2,2,2-trifluoro-ethyl)-phenyl]-2-aza-spiro[4.5]decan-1-one]"
8,10,"O=C1N(c2ccc(CC(F)(F)F)cc2)CC[C@]12CC[C@@](O)(COCC(F)F)CC2 [Example 303, (5α,8α)-8-(2,2-Difluoro-ethoxymethyl)-8-hydroxy-2-[4-(2,2,2-trifluoro-ethyl)-phenyl]-2-aza-spiro[4.5]decan-1-one]"
9,330,"CS(=O)(=O)C[C@]1(O)CC[C@]2(CCN(c3ccc(OCC(F)(F)F)cc3)C2=O)CC1 [Example 304, (5α,8α)-8-Hydroxy-8-methanesulfonylmethyl-2-[4-(2,2,2-trifluoro-ethoxy)-phenyl]-2-aza-spiro[4.5]decan-1-one]"
10,30,"CCCS(=O)(=O)C[C@]1(O)CC[C@]2(CCN(c3ccc(OCC(F)(F)F)cc3)C2=O)CC1 [Example 305, (5α,8α)-8-Hydroxy-8-(propane-1-sulfonylmethyl)-2-[4-(2,2,2-trifluoro-ethoxy)-phenyl]-2-aza-spiro[4.5]decan-1-one]"
11,10,"CC(C)SC[C@]1(O)CC[C@]2(CCN(c3ccc(OCC(F)(F)F)cc3)C2=O)CC1 [Example 306, (5α,8α)-8-Hydroxy-8-isopropylsulfanylmethyl-2-[4-(2,2,2-trifluoro-ethoxy)-phenyl]-2-aza-spiro[4.5]decan-1-one]"
12,200,"CC(C)OC[C@]1(O)CC[C@@]2(CCN(c3ccc(O[C@@H](C)C(F)(F)F)cc3)C2=O)CC1 [Example 307, (5α,8β)-8-Hydroxy-8-isopropoxymethyl-2-[4-((S)-2,2,2-trifluoro-1-methyl-ethoxy)-phenyl]-2-aza-spiro[4.5]decan-1-one]"
